Measured values taken from patent US20220010283A1, “METHOD FOR PRODUCING PLURIPOTENT STEM CELL HAVING RELEASED DIFFERENTIATION RESISTANCE TO MESENDODERM” (Kyoto University, priority 2018, published 2022).

How the values were obtained:
[1] = test system: human iPS cell line AK5 (hPSC1); assay: Differentiation into hematopoietic progenitor cells by the PSC-Sac method (CD34+CD43+ cell count); format: cell-based; conditions: PSCs maintained on LM511, CHIR99021 6 nM added from 4, 3, 2 or 1 day before start of differentiation induction; vs DMSO (FIG. 2)
Protocol: PSCs were cultured according to the previous report on various laminin E8 fragments under feeder-free conditions (Nakagawa et al., Scientific Reports, 4: 3954, 2014). Among the recombinant laminin E8 fragments used, LM511 E8 was iMatrix-511/iMatrix-511 silk (Nippi, Ibaraki, Japan), and other laminin E8 (LM421/121) fragments were provided by Dr. Kiyotoshi Sekiguchi (Institute for Protein Research, Osaka University). Each laminin fragment was added to 0.5 μg/cm^2 relative to the dish bottom area. In the laminin dilution experiment, coating was performed in the same manner as described above under the conditions of [x½], [x¼], [x⅛], [x 1/16], wherein [x1] is Laminin 511E8 0.5 μg/cm^2 condition. […]
As a method for performing blood cell differentiation from PSCs, the PSC-Sac method, which is a co-culture method with mouse interstitial cell C3H10TR, was used (Takayama and Eto Methods Mol Biol. 2012; 788:205-17, Takaayama et al. J Exp Med. 2010 207(13): 2817-2830). […] After confirmation of the absence of intercellular adhesion, the cells were detached from the dish with Cell scraper, and the number of the cells was counted with Trypan Blue and a hemocytometer. […]
The number of the cells was counted with Trypan Blue and a hemocytometer. […] For the measurement of hPSCs, TRA-1-60 positive cells were measured. […]

[2] = test system: human iPS cell line AK5; assay: Intracellular staining and flow cytometry of pluripotency markers SOX2 and OCT3/4; format: cell-based; conditions: PSCs maintained in LM511 with CHIR99021 added; immediately before initiation of differentiation (FIG. 7)
Protocol: To detect pluripotency markers SOX2 and OCT3/4, intracellular staining was performed by flow cytometry. Briefly, dead cell staining was performed using Zombie (trade s mark) Aqua Fixable Viability Kit (BioLegend, San Diego, Calif., USA). After washing, the cells were fixed by allowing to stand for 15 min at room temperature with PerFix-nckit Reagent1. Successively, the cells were subjected to a permeation treatment by fixing with ice-cooled 100% methanol for 5 min, and incubating for 10 min at room temperature with 0.5% saponin. The cells were washed and suspended in PBS (containing 3% FBS), V450 Mouse anti-Sox2 and Alexa Fluor (registered trade mark) 488 conjugated Mouse anti-OCT3/4 (BD biosciences, Bedford, Mass., USA) was added, and the mixture was incubated on ice for 30 min. Excessive antibody was washed away and analysis was performed with FACSVerse (trade mark) (BD Biosciences).

Q: How did the “number of hematopoietic progenitor cells” value [1] turn out when `Cc1c[nH]c(-c2cnc(NCCNc3ccc(C#N)cn3)nc2-c2ccc(Cl)cc2Cl)n1` [CHIR99021, 6-[2-[4-(2,4-Dichlorophenyl)-5-(4-methyl-1H-imidazol-2-yl)pyrimidin-2-ylamino]ethylamino]pyridine-3-carbonitrile] was run?
A: The value was “the number of hematopoietic progenitor cells could be increased”.

Q: What about the “number of cells maintaining positive pluripotency for both OCT3/4 and SOX2” value [2] of the same molecule?
A: The value was “decreased”.
